Tested on: PCA responses
Experiment: Rat Passive Cutaneous Anaphylaxis (PCA) test
Assay type: in vivo, Wistar rats
Experimental: All of the compounds prepared in the preceding Examples were submitted for biological testing. The test system was the Rat Passive Cutaneous Anaphylaxis (PCA) test described below in (ii).
i. Serum containing heat labile homocytotropic antibody was raised in rats by a method similar to that used by Mota. (I. Mota Immunology 1964, 7, 681).
Male Wistar rats of 250-300g. were injected intraperitoneally with 0.5 of Bordatella pertussis vaccine (containing 4 × 10^10 dead organism per ml) and subcutaneously with 0.5ml of an emulsion of 100mg. of ovalbumin in 2ml of saline and 3ml of incomplete Freunds' adjuvant. Rats were bled by cardiac puncture on day 18, the blood was pooled and separated and serum stored at -20° and thawed only once before use.
ii. The P.C.A. test was similar to that described by Ovary and Bier (A. Ovary and O. E. Bier, Proc. Soc. Exp. Biol. Med. 1952, 81, 584) and Goose and Blair (J. Goose and AMJ. N. Blair, Immunology 1969, 16, 769).
0.1ml of each of six twofold serial dilutions of the serum in 0.9% saline were injected intradermally into separate sites on the shaved dorsal surface of 250-350g. Wistar rats. 72 hours later the animals were challenged by i.v. injection of 0.3ml of 1% ovalbumin mixed with 0.1ml of a 5% solution of pontamine sky blue dye both in isotonic saline buffered with pH. 7.2 Sorenson buffer (P.B.S.). The rats were killed after 20 minutes and the diameter of the blue wheals at the antibody injection sites were measured. The starting dilution of the serum was adjusted so that there was no response, after challenge, at the site of injection of the highest dilution and a maximum response at the lowest dilution. Typically, six twofold serial dilutions of the serum from 1/4 to 1/128 were used.
Compounds were tested for their ability to reduce the diameter of the wheals at the injection sites of dilutions of antibody which on all the controls have less than maximum response. Amounts of the compounds were administered to rats each amount to a test group of six animals at a specified time prior to intravenous challenge with ovalbumin. The diameters of the blue wheals which developed on the tests group of animals were compared with those on a control group of six animals treated in the same way as the test group, but which had not received the compound under test.
% Inhibition of P.C.A. = 100 (1 - a/b)
a = The mean of the sum of the diameters of the wheals produced in the test group of animals at those antibody sites where all the control group of animals gave less than maximum response.
b = The mean of the sum of diameters of the wheals produced in the control group of animals at those antibody sites where all the animals in the group gave less than maximum response.
The preferred method of administration was a solution of the test compound dissolved in pH 7.2 buffer and neutralised with sodium bicarbonate.

[1] = first dose pair, only one time (0) printed for the whole line
[2] = second dose pair, time not printed separately
[3] = iv, time 0 mins prior to i.v. ovalbumin challenge
[4] = iv, time 60 mins prior to i.v. ovalbumin challenge
[5] = iv, time 30 mins prior to i.v. ovalbumin challenge
[6] = iv, time 10 mins prior to i.v. ovalbumin challenge

Structure (SMILES) | inhibition at 25 mg/kg [3] | inhibition at 100 mg/kg [3] | inhibition at 25 mg/kg [5] | inhibition at 100 mg/kg [5] | further results
Cc1cccc2cc(C(=O)O)oc(=O)c12 [Example 3, 8-Methylisocoumarin-3-carboxylic acid] |  |  |  |  | inhibition at 25 mg/kg [1]: 44%; inhibition at 25 mg/kg [2]: 15%; inhibition at 100 mg/kg [1]: 66%; inhibition at 100 mg/kg [2]: 28%
O=C(O)c1cc2ccccc2c(=O)s1 [Example 12, 2-Thiaisocoumarin-3-carboxylic acid] | 0% | 22% |  |  | inhibition at 25 mg/kg [4]: 4%; inhibition at 100 mg/kg [4]: 14%
O=C(O)c1cc2ccccc2c(=O)[nH]1 [Example 9, Isocarbostyril-3-carboxylic acid] | 21% | 36% | 15% | 25% | 
COc1ccc2cc(C(=O)O)oc(=O)c2c1OC [Example 15, 7,8-Dimethoxyisocoumarin-3-carboxylic acid] |  |  | 12% | 29% | inhibition at 25 mg/kg [6]: 64%; inhibition at 100 mg/kg [6]: 63%
COc1cc2cc(C(=O)O)oc(=O)c2cc1OC [Example 8, 6,7-Dimethoxyisocoumarin-3-carboxylic acid] | 64% | 84% | 24% | 24% | 
Cc1c(C(=O)O)oc(=O)c2c(C)cccc12 [Example 4, 4,8-Dimethylisocoumarin-3-carboxylic acid] | 10% | 12% | 8% | 48% | 
Cc1c(C(=O)O)oc(=O)c2ccccc12 [Example 2, 4-Methylisocoumarin-3-carboxylic acid] | -3% | 41% | 0% | 10% | 
O=C(O)c1cc2ccc(Br)cc2c(=O)o1 [Example 6, 7-Bromoisocoumarin-3-carboxylic acid] | 26% | 39% |  |  | inhibition at 25 mg/kg [4]: 39%; inhibition at 100 mg/kg [4]: 0%
Cc1c(C(=O)O)[nH]c(=O)c2ccccc12 [Example 10, 4-Methylisocarbostyril-3-carboxylic acid] | 12% | 26% | -13% | 21% | 
Cc1cc2c(C)c(C(=O)O)oc(=O)c2cc1C [Example 7, 4,6,7-Trimethylisocoumarin-3-carboxylic acid monohydrate] | 10% | 15% | 39% | 49% | 
COc1cc2cc(C(=O)O)[nH]c(=O)c2cc1OC [Example 11, 6,7-Dimethoxyisocarbostyril-3-carboxylic acid] | 11% | 38% | 2% | 17% | 
O=C(O)c1cc2ccccc2c(=O)o1 [Example 1, Isocoumarin-3-carboxylic acid] | 29% | 62% | -13% | 16% | 
COc1ccc2cc(C(=O)O)oc(=O)c2c1 [Example 5, 7-Methoxyisocoumarin-3-carboxylic acid] | 9% | 9% |  |  | inhibition at 25 mg/kg [4]: 4%; inhibition at 100 mg/kg [4]: 55%
COc1cc2cc(C(=O)O)sc(=O)c2cc1OC [Example 14, 6,7-Dimethoxy-2-thiaisocoumarin-3-carboxylic acid] |  |  |  |  | inhibition at 12.5 mg/kg (iv, Dose 12.5 mg/Kg, time 10 mins prior to i.v. ovalbumin challenge): 28%; inhibition at 25 mg/kg [6]: 47%; inhibition at 50 mg/kg (iv, Dose 50 mg/Kg, time 10 mins prior to i.v. ovalbumin challenge): 79%; inhibition at 100 mg/kg [6]: 87%
Cc1c(C(=O)O)sc(=O)c2ccccc12 [Example 13, 4-Methyl-2-thiaisocoumarin-3-carboxylic acid] | -6% | 6% |  |  | inhibition at 25 mg/kg [4]: 6%; inhibition at 100 mg/kg [4]: 19%

From patent US3975535A, “Anti-allergic-3-carboxy-isocoumarin compositions and methods of use” (Beecham Group Limited, priority 1973, dated 1976)
